Experimental data published in patent US11420975B2, “Substituted imidazo[1,5-a]pyrazines as Bruton's tyrosine kinase inhibitors” (TRANSTHERA SCIENCES (NANJING), INC., priority 2018, dated 2022).

How the values were obtained:
BTK(C481S) = BTK(C481S) (Homo sapiens (Human), UniProt Q06187, C481S); experiment: In vitro inhibitory activity against BTK(C481S) enzyme (33P-ATP filter binding); format: biochemical; conditions: class symbols; read-out: IC50 BTK(C48IS)
Description: (§1) The substrate solution was prepared by adding the substrate poly(Glu, Tyr) sodium salt (Sigma Aldrich, St. Louis, Mo.) to the substrate reaction buffer (20 mM Hepes (pH 7.5), 10 mM MgCl2, 1 mM EGTA, 0.02% Brij35, 0.02 mg/mL BSA, 0.1 mM Na3VO4, 2 mM DTT and 1% DMSO) (final substrate concentration in the reaction solution was 0.2 μM). Test compound was formulated into stock solutions at 10 mM concentration with 100% DMSO, and 3-fold serial dilution for 10 doses was performed in a 384-well cyclic olefin copolymer LDV microplate. […] Test compound in 100% DMSO was then added to the kinase reaction mixture by acoustic liquid transfer technology (Echo 550; nanoliter range) (Labcyte Inc, Sunnyvale, Calif.) and incubated for 20 min at room temperature. 33P-ATP (specific activity 10 μCi/μL) was added to the reaction mixture to initiate the reaction, followed by incubation at room temperature for 2 h. A small portion of the reaction mixture was dropped onto P-81 ion exchange filter paper (Whatman). After washing the unbound phosphate from the filter paper with 0.75% phosphate buffer (three times) and drying, the remaining radioactivity on the filter paper was measured. The kinase activity was expressed as the percentage of the remaining kinase activity in the test sample to the kinase activity in the vehicle (dimethyl sulfoxide) blank control. IC50 values were calculated by curve fitting the data obtained using Prism (GraphPad Software).

BTK(wt) = BTK(wt) (Homo sapiens (Human), UniProt Q06187); experiment: In vitro inhibitory activity against BTK(wt) enzyme (33P-ATP filter binding); format: biochemical; conditions: class symbols
Description: as §1

BTK(C481S), sequence (Q06187 whole entry C481S): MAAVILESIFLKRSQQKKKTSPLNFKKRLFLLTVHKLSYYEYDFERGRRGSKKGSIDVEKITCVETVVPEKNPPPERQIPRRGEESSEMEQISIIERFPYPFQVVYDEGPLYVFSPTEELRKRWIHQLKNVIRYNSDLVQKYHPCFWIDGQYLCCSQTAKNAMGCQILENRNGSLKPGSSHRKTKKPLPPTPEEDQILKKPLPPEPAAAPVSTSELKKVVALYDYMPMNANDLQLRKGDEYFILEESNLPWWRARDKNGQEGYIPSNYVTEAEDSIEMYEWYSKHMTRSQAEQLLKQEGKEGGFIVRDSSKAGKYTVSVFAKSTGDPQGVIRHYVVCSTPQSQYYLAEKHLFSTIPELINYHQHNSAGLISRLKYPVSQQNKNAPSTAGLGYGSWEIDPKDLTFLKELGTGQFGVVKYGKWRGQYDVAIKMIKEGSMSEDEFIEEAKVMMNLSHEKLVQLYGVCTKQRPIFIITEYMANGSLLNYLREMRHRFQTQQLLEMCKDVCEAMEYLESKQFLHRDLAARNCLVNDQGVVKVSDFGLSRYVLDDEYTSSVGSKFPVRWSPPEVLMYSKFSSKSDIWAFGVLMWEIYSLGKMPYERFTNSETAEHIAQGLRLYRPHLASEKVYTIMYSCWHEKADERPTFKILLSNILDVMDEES
BTK(wt), sequence (Q06187 whole entry): as the sequence (Q06187 whole entry C481S) above, with S481C counted along it

Row | Structure (SMILES) | IC50 (BTK(C481S)) [nM] | IC50 (BTK(wt)) [nM]
1 | C=CC(=O)NC12CCC(c3nc(-c4ccc(C(=O)Nc5cc(C(F)(F)F)ccn5)cc4)c4c(N)nccn34)(CC1)C2 [Compound A-10-3, 4-(3-(4-acrylamidobicyclo[2.2.1]heptan-1-yl)-8-aminoimidazo[1,5-a]pyrazin-1-yl)-N-(4-(trifluoromethyl)pyridin-2-yl)benzamide] | 0.1 to 1 | 1 to 10
2 | COc1ccc(F)cc1C(=O)NCc1ccc(-c2nc(C34CCC(NC(=O)C(C)(C)O)(CC3)C4)n3ccnc(N)c23)cc1 [Compound A-16-1, N-(4-(8-amino-3-(4-(2-hydroxy-2-methylpropanamido)bicyclo[2.2.1]heptan-1-yl)imidazo[1,5-a]pyrazin-1-yl)benzyl)-5-fluoro-2-methoxybenzamide] | 1 to 10 | 10 to 50
3 | CC#CC(=O)NC12CCC(c3nc(-c4ccc(CNC(=O)c5cc(F)ccc5OC)cc4)c4c(N)nccn34)(CC1)C2 [Compound A-7-12, N-(4-(8-amino-3-(4-(but-2-ynamido)bicyclo[2.2.1]heptan-1-yl)imidazo[1,5-a]pyrazin-1-yl)benzyl)-5-fluoro-2-methoxybenzamide] | 0.1 to 1 | 1 to 10
4 | Nc1nccn2c(C34CCC(NC(=O)c5nccs5)(CC3)C4)nc(-c3ccc(C(=O)Nc4cc(C(F)(F)F)ccn4)cc3)c12 [Compound A-10-22, N-(4-(8-amino-1-(4-((4-(trifluoromethyl)pyridin-2-yl)carbamoyl)phenyl)imidazo[1,5-a]pyrazin-3-yl)bicyclo[2.2.1]heptan-1-yl)thiazole-2-carboxamide] | 1 to 10 | 1 to 10
5 | CC#CC(=O)NC12CCC(c3nc(-c4ccc(C(=O)Nc5cc(C#N)ccn5)cc4)c4c(N)nccn34)(CC1)C2 [Compound A-7-5, 4-(8-amino-3-(4-(but-2-ynamido)bicyclo[2.2.1]heptan-1-yl)imidazo[1,5-a]pyrazin-1-yl)-N-(4-cyanopyridin-2-yl)benzamide] | 0.1 to 1 | 1 to 10
6 | COC/C=C/C(=O)NC12CCC(c3nc(-c4ccc(C(=O)Nc5cc(C(F)(F)F)ccn5)cc4)c4c(N)nccn34)(CC1)C2 [Compound A-10-1, (E)-4-(8-amino-3-(4-(4-methoxybut-2-enamido)bicyclo[2.2.1]heptan-1-yl)imidazo[1,5-a]pyrazin-1-yl)-N-(4-(trifluoromethyl)pyridin-2-yl)benzamide] | 0.1 to 1 | 1 to 10
7 | N#CC1(C(=O)NC23CCC(c4nc(-c5ccc(C(=O)Nc6cc(C(F)(F)F)ccn6)cc5)c5c(N)nccn45)(CC2)C3)CC1 [Compound A-10-12, 4-(8-amino-3-(4-(1-cyanocyclopropanecarboxamido)bicyclo[2.2.1]heptan-1-yl)imidazo[1,5-a]pyrazin-1-yl)-N-(4-(trifluoromethyl)pyridin-2-yl)benzamide] | 0.1 to 1 | 1 to 10
8 | COCC(=O)NC12CCC(c3nc(-c4ccc(C(=O)Nc5cc(C(F)(F)F)ccn5)cc4)c4c(N)nccn34)(CC1)C2 [Compound A-10-7, 4-(8-amino-3-(4-(2-methoxyacetamido)bicyclo[2.2.1]heptan-1-yl)imidazo[1,5-a]pyrazin-1-yl)-N-(4-(trifluoromethyl)pyridin-2-yl)benzamide] | 0.1 to 1 | 1 to 10
9 | CC(C#N)C(=O)NC12CCC(c3nc(-c4ccc(C(=O)Nc5cc(C(F)(F)F)ccn5)cc4)c4c(N)nccn34)(CC1)C2 (centres unmarked) [Compound A-10-14, 4-(8-amino-3-(4-(2-cyanopropanamido)bicyclo[2.2.1]heptan-1-yl)imidazo[1,5-a]pyrazin-1-yl)-N-(4-(trifluoromethyl)pyridin-2-yl)benzamide] | 0.1 to 1 | 1 to 10
10 | COc1ccc(F)cc1C(=O)NCc1ccc(-c2nc(C34CCC(NC(=O)C5(C)COC5)(CC3)C4)n3ccnc(N)c23)cc1 [Compound A-16-3, N-(4-(8-amino-1-(4-((5-fluoro-2-methoxybenzamido)methyl)phenyl)imidazo[1,5-a]pyrazin-3-yl)bicyclo[2.2.1]heptan-1-yl)-3-methyloxetane-3-carboxamide] | 1 to 10 | 1 to 10
11 | Nc1nccn2c(C34CCC(NC(=O)c5ccccc5)(CC3)C4)nc(-c3ccc(C(=O)Nc4cc(C(F)(F)F)ccn4)cc3)c12 [Compound A-10-17, 4-(8-amino-3-(4-benzamidobicyclo[2.2.1]heptan-1-yl)imidazo[1,5-a]pyrazin-1-yl)-N-(4-(trifluoromethyl)pyridin-2-yl)benzamide] | 1 to 10 | 10 to 50
12 | Nc1nccn2c(C34CCC(NC(=O)c5cccnc5)(CC3)C4)nc(-c3ccc(C(=O)Nc4cc(C(F)(F)F)ccn4)cc3)c12 [Compound A-10-19, N-(4-(8-amino-1-(4-((4-(trifluoromethyl)pyridin-2-yl)carbamoyl)phenyl)imidazo[1,5-a]pyrazin-3-yl)bicyclo[2.2.1]heptan-1-yl)nicotinamide] | 1 to 10 | 10 to 50
13 | Nc1nccn2c(C34CCC(NC(=O)C5CCCO5)(CC3)C4)nc(-c3ccc(C(=O)Nc4cc(C(F)(F)F)ccn4)cc3)c12 (centres unmarked) [Compound A-10-11, N-(4-(8-amino-1-(4-((4-(trifluoromethyl)pyridin-2-yl)carbamoyl)phenyl)imidazo[1,5-a]pyrazin-3-yl)bicyclo[2.2.1]heptan-1-yl)tetrahydrofuran-2-carboxamide] | 0.1 to 1 | 1 to 10

Continued, values first:

Row | IC50 (BTK(C481S)) [nM] | IC50 (BTK(wt)) [nM] | Structure (SMILES)
14 | 1 to 10 | 1 to 10 | CC1(C(=O)NC23CCC(n4cc(-c5ccc(C(=O)Nc6cc(C(F)(F)F)ccn6)cc5)c5c(N)ncnc54)(CC2)C3)COC1 [Compound B-6-4, N-(4-(4-amino-5-(4-((4-(trifluoromethyl)pyridin-2-yl)carbamoyl)phenyl)-7H-pyrrolo[2,3-d]pyrimidin-7-yl)bicyclo[2.2.1]heptan-1-yl)-3-methyloxetane-3-carboxamide]
15 | 1 to 10 | 10 to 50 | CC(C)(O)C(=O)NC12CCC(n3cc(-c4ccc(C(=O)Nc5cc(C(F)(F)F)ccn5)cc4)c4c(N)ncnc43)(CC1)C2 [Compound B-6-2, 4-(4-amino-7-(4-(2-hydroxy-2-methylpropanamido)bicyclo[2.2.1]heptan-1-yl)-7H-pyrrolo[2,3-d]pyrimidin-5-yl)-N-(4-(trifluoromethyl)pyridin-2-yl)benzamide]
16 | 1 to 10 | 1 to 10 | COCCC(=O)NC12CCC(n3cc(-c4ccc(C(=O)Nc5cc(C(F)(F)F)ccn5)cc4)c4c(N)ncnc43)(CC1)C2 [Compound B-6-3, 4-(4-amino-7-(4-(3-methoxypropanamido)bicyclo[2.2.1]heptan-1-yl)-7H-pyrrolo[2,3-d]pyrimidin-5-yl)-N-(4-(trifluoromethyl)pyridin-2-yl)benzamide]
17 | 1 to 10 | 1 to 10 | CC#CC(=O)NC12CCC(n3c(=O)n(-c4ccc(C(=O)Nc5cc(C(F)(F)F)ccn5)cc4)c4c(N)ncnc43)(CC1)C2 [Compound C-7-1, 4-(6-amino-9-(4-(but-2-ynamido)bicyclo[2.2.1]heptan-1-yl)-8-oxo-8,9-dihydro-7H-purin-7-yl)-N-(4-(trifluoromethyl)pyridin-2-yl)benzamide]
18 | 1 to 10 | 1 to 10 | Nc1ncnc2c1c(-c1ccc(C(=O)Nc3cc(C(F)(F)F)ccn3)cc1)cn2C12CCC(NC(=O)CN3CCOCC3)(CC1)C2 [Compound B-6-5, 4-(4-amino-7-(4-(2-morpholinoacetamido)bicyclo[2.2.1]heptan-1-yl)-7H-pyrrolo[2,3-d]pyrimidin-5-yl)-N-(4-(trifluoromethyl)pyridin-2-yl)benzamide]
19 | 1 to 10 | 1 to 10 | CC#CC(=O)NC12CCC(n3cc(-c4ccc(C(=O)Nc5cc(C(F)(F)F)ccn5)cc4)c4c(N)ncnc43)(CC1)C2 [Compound B-6-1, 4-(4-amino-7-(4-(but-2-ynamido)bicyclo[2.2.1]heptan-1-yl)-7H-pyrrolo[2,3-d]pyrimidin-5-yl)-N-(4-(trifluoromethyl)pyridin-2-yl)benzamide]
